Reference: patent publication US7572779B2 (priority 2001, dated 2009)

Test: Open-label, single-dose, randomized, crossover oral bioavailability study in healthy postmenopausal women volunteers
Conditions: single oral tablet
From the text: The study was an open-label, single-dose, randomized, crossover, bioavailability study in nine healthy postmenopausal women volunteers.
Comparison of treatments was based on ratio of least square means from analysis of variance and ratio of individual subject parameter values, e.g. ratio=(AUCtreatment A)/(AUCtreatment B).

Question: For `CC(=O)Oc1ccc2c(c1)CC[C@@H]1[C@@H]2CC[C@]2(C)[C@@H](O)CC[C@@H]12` [17β-estradiol-3-acetate], which “Absorption as indicated by shape of serum estradiol concentration-time profiles” value is on record?
Answer: rapidly absorbed and hydrolyzed to 17β-estradiol in vivo
